Key:
clone B4 = test: Immunoreactivity of clone B4 (BrdU, v-myc, MAP2a/b, GFAP, tau, NR1); type: cell-based, human
Excerpt: (§1) To promote further neuronal maturation the effects of additional differentiating agents on clone B4 were examined.

Human CNS Line B4 = test: Effects of growth conditions on neuronal differentiation (morphology), Human CNS Line B4 (Table 3); type: cell-based; details: clone B4, added to tet
Excerpt: as §1

clone E5 = test: Immunoreactivity of clone E5; type: cell-based, human; details: clone E5, after differentiation
Description: Clone E5 is an immature multi-potent cell. Clone E5 is multi-potential and likely represents an immortalized stem cell.

clone C2 = test: Effects of EGF and PDGF on proliferation and survival, clone C2; type: cell-based, human; details: added to growth medium with FGF-2 and 50% CM, EGF 40 ng/mL, PDGF 20 ng/mL
Description: (§2) EGF and PDGF Enhance Proliferation Rate and Cell Survival. To facilitate the expansion of the human CNS clones, we identified factors that increase the proliferation rate and/or cell survival. To examine the effects of EGF and PDGF on the proliferation and survival of the human CNS clones, 40 ng/mL EGF, 20 ng/mL PDGF or both were added to the standard growth medium, which already contained FGF-2 and 50% CM, and total cell number and BrdU uptake and incorporation were assessed as described above. For clone C2, EGF or PDGF addition increased the total cell number (FIG. 11A) by approximately 2-fold. This increase in cell number was due to enhanced cell viability (decreased cell death), since there were only slight increases in proliferation rate (assessed by BrdU uptake and incorporation, FIG. 11B). […] In the case of clone C10, EGF (but not PDGF) addition increased the total cell number (FIG. 12A) by approximately 40%. […] This increase in cell number was due, at least in part, to enhanced proliferation rates; BrdU uptake and incorporation increase about 2-fold with EGF or EGF+PDGF addition (FIG. 12B), and doubling times (based on cell counts as a function of days in vitro, data not shown) decreased from 3 days (no EGF or PDGF addition) to 2 days (EGF+PDGF addition). […]

clone C10 = test: Effects of EGF and PDGF on proliferation and survival, clone C10; type: cell-based, human; details: EGF 40 ng/mL, PDGF 20 ng/mL
Description: as §2

Description for differentiated clone B4: B4 cells were differentiated by growth with tet+RA for 1 day, followed by tet, high K^+, NT-3 and BDNF for 6 days.

CCCCCCCCCCCCCC(=O)O[C@@H]1[C@@H](C)[C@@]2(O)[C@@H](C=C(CO)C[C@]3(O)C(=O)C(C)=C[C@@H]23)[C@@H]2C(C)(C)[C@]12OC(C)=O [PMA, phorbol 12-myristate 13-acetate] was tested, and the “effect on cell lineage (MAP2a/b and GFAP immunoreactivities)” value (clone B4) was “strongly promoted astrocytic differentiation” and the “effect on neuronal differentiation (morphology and immunocytochemical staining)” value (Human CNS Line B4) was “prevented tet from inducing neuronal differentiation”.

CN(C)[C@@H]1C(O)=C(C(N)=O)C(=O)[C@@]2(O)C(O)=C3C(=O)c4c(O)cccc4[C@@](C)(O)[C@H]3C[C@@H]12 [tetracycline] was tested, and the “cells stained for GFAP” value (clone E5) was “about 20%” and the “cells stained for MAP2a/b” value (clone E5) was “about 50%”.

For “PDGF: human recombinant platelet derived growth factor A/B”, the “increase in total cell number” value (clone C2) was “approximately 2 fold” and the “effect on total cell number” value (clone C10) was “not”.

With TNFα the “DNA laddering upon gel analysis” value (differentiated clone B4; TNFα 10 ng/mL) was “increased DNA laddering”, the “percentage of apoptotic nuclei” value (differentiated clone B4; TNFα 10 ng/mL) was “increased” and the “effect on neuronal viability” value (differentiated clone B4; TNFα 0.05 or 0.2 ng/mL) was “little effect on neuronal viability”.

For “Z-Val-Ala-Asp-Ch2F [Z-VAD, reference compound]”, the “effect on TNFα-induced increase in DNA laddering” value (differentiated clone B4; Z-VAD at 80 μM, TNFα 10 ng/mL) was “blocked the increase in DNA laddering”.
